Peptide text beside a SMILES is read from it.
Columns and labels:
[1] = test system: CD4+ T-cells; assay: Recall-assay with splenic CD4+ T-cells; assay type: cell-based, Lewis/CrlBR rats; settings: 1.0 μg/ml β1EC2-CP; T-cells from spleens of treated and untreated rats; [3H]-thymidine (Fig. 5B-D)
Procedure: (a) Recall-assays with T-cells from spleens of immunised untreated vs. β1EC2-CP-treated animals were conducted as described in [60]. In brief, to purify CD4^+ T-cells from the splenic cell preparations, B-cells and CD8^+ T-cells were depleted by commercially available magnetic beads (MACS, Miltenyi Biotec, Bergisch-Gladbach, Germany) yielding a purity >85%. 1x10^5 of the purified CD4^+ T-cells were then co-incubated in 96-well plates with 1x10^6 irradiated thymic antigen presenting cells (prepared from a younger rat). Reagents added in the different assays were 1.0 μg/ml β1EC2-CP, 1.0 μg/ml tuberculin purified protein derivative (PPD, internal control), 1.0 μg/ml glutathion-S-transferase (GST), as well as 1.0 and 0.1 μg/ml GST/β1EC2-fusion proteins (FP), respectively. Measured T-cell reactivities were normalised to medium. After 48 h of incubation the cells were pulsed with 1.25 μCi/well [^3H]-thymidine and further incubated for 16 h before the cells were harvested; the DNA-incorporated radioactivity was measured using a beta-plate counter.
Fig 5 Immunology of cyclic β1EC2-peptides: fate of β1EC2-specific T- and B-cells. (A) Titer-course of anti-β1EC2-abs in β1EC2-CP-treated rats during the first 6 months of the prevention-study before and 24h after cyclopeptide-injection. […] For better readability error-bars are not shown in the graph. […]

[2] = test system: β1EC2-specific memory B-cells; assay: Flow cytometric detection of β1EC2-specific memory B-cells; assay type: in vivo, Lewis/CrlBR rats; settings: Fig. 5K and L
Procedure: (c) For flow cytometric detection of β 1 EC2-specific memory B-cells, splenocytes (1.5x10^8 cells per staining, 2x10^7 cells/ ml in PBS/0.1% BSA/0.02% NaN3) were first labelled with anti-rat IgG(Fc) PE (Jackson Immunoresearch, West Grove, USA) followed by three washings and a blocking step using normal rat serum plus GST (1:500 and 2 μg/ ml, respectively). After another washing step, OX-33 FITC (BD, Heidelberg, Germany, 0.1 μg/ml) and DyLight649-labelled GST/β1EC2-FP (0.2 μg/ml) were added. All incubations were carried out for 15 min on ice and in the dark. Finally, the cells were washed three times and analysed on a FACS-Calibur (BD, Heidelberg, Germany) and FlowJo Software (Tree Star, Ashland, USA) was used to analyse the data.
(§1) Fig 5 Immunology of cyclic β1EC2-peptides: fate of β1EC2-specific T- and B-cells. (A) Titer-course of anti-β1EC2-abs in β1EC2-CP-treated rats during the first 6 months of the prevention-study before and 24h after cyclopeptide-injection. Time-points of antigen-boosts are indicated by (red) lines, time-points of CP-injections by (green) arrows. For better readability error-bars are not shown in the graph. (B) Pre-experiments (antigenic recall-assays) performed with CD4^+ T-cells prepared from spleens of GST/β1EC2 fusion-protein (FP)-immunised untreated (n = 3, black) vs. 0.9%NaCl-injected control rats (n = 3, white). […]

[3] = test system: GRK2 and GRK5; assay: qRT-PCR of cardiac GRK expression, therapy-study; assay type: in vivo, Lewis/CrlBR rats; settings: qRT-PCR normalised to GAPDH (Fig. 4C)
[4] = test system: functional β1EC2-specific memory B-cells; assay: Adoptive B-cell transfer and suboptimal immunisation; assay type: in vivo, Lewis rats; settings: purified B-cells from immunised treated donors into antigen-naïve recipients, then 12.5μg β1EC2/GST-FP in adjuvans (Fig. 5M)
Procedure: (d) To detect functional β 1 EC2-specific memory B-cells in vivo, B-cells were first purified from total splenocytes by negative depletion using mAb V65, R73, 10/78 and WT.5 plus magnetic beads (MACS, Miltenyi Biotec, Bergisch-Gladbach, Germany) yielding average purities of 87%. 2.6x10^7 purified B cells were injected in 250 μl PBS i.v. into antigen-naïve syngeneic male Lewis rats. To selectively trigger the transferred memory B-cells, recipient rats were immunised after five days with only 12.5 μg GST/β1EC2-FP in adjuvans per animal. Serum was collected for antibody detection just before as well as three and seven days after immunisation.
as §1

`CC(C)[C@@H]1NC(=O)[C@H](Cc2ccccc2)NC(=O)[C@H](CC(=O)O)NC(=O)[C@H](CS)NC(=O)[C@H](CS)NC(=O)[C@H](CCCCN)NC(=O)[C@@H]2CCCN2C(=O)[C@H](CC(=O)O)NC(=O)[C@H](CC(N)=O)NC(=O)[C@H](Cc2ccc(O)cc2)NC(=O)[C@H](CS)NC(=O)[C@H](CCCNC(=N)N)NC(=O)[C@H](CCCNC(=N)N)NC(=O)[C@H](C)NC(=O)[C@H](CCC(=O)O)NC(=O)[C@H](CC(=O)O)NC(=O)[C@H](CO)NC(=O)[C@H](CCC(=O)O)NC(=O)[C@H](C)NC(=O)[C@H](CCCNC(=N)N)NC(=O)[C@H](C)NC(=O)[C@H](CCC(N)=O)NC(=O)CNC(=O)[C@H](CCCNC(=N)N)NC(=O)[C@H](CC(N)=O)NC(=O)[C@H]([C@@H](C)O)NC1=O` [β1EC2-CP] (cyclo(AESDEARRCYNDPKCCDFVTNRGQAR)) was tested. Which “in vitro recall response of purified CD4+ T-cells, in words” value [1] did it give?
The value was “clearly responded to the FP but not to β1EC2-CP”.

What about the “β1EC2-specific memory B-cells by flow cytometry, in words” value [2] of the same compound?
Its value is “complete depletion”.

And the “upregulation of GRK2 and GRK5, in words” value [3]?
Its value is “reverted”.

What about the “anti-β1EC2-abs in serum of recipient rats after B-cell transfer, in words” value [4] of the same compound?
Its value is “did not induce detectable amounts”.

— article PMC4336331, “Novel Receptor-Derived Cyclopeptides to Treat Heart Failure Caused by Anti-β1-Adrenoceptor Antibodies in a Human-Analogous Rat Model” (PLoS ONE, 2015)
